# How the values were obtained:
# wild oat [1] = assay: Test Example 5: herbicidal effect by foliage application, plastic box (Table 20, symbol I); type: in vivo, wild oat (Avena fatua); conditions: foliage application, 320 g/ha, three weeks after application
# Method in brief: (§1)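 Plants sown in sterilized diluvial soil and grown 14 days in a greenhouse at 25° C to 30° C, then sprayed on the foliage with the compound's emulsion diluted in water to a predetermined herbicide amount. Injury to weeds and crops scored three weeks after application on a visual rating scale.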
# blackgrass [2] = assay: Test Example 5: herbicidal effect by foliage application, plastic box (Table 20, symbol J); type: in vivo, blackgrass (Alopecurus myosuroides); conditions: foliage application, 320 g/ha, three weeks after application
# Method in brief: as §1
# Italian ryegrass [3] = assay: Test Example 4: herbicidal effect by soil treatment (Table 19, symbol K); type: in vivo, Italian ryegrass (Lolium multiflorum); conditions: amount of applied herbicide 320 g/ha
# Method in brief: (§2)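 Seeds were sown in sterilized diluvial soil and covered with about 1.5 cm of soil. An emulsion formulation diluted with water to a predetermined herbicide amount was sprayed evenly onto the soil surface. Plants grew in a greenhouse at 25° C. to 30° C., and the effect was scored three weeks after application using criteria from an earlier test.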
# barnyard grass [4] = assay: Test Example 4: herbicidal effect by soil treatment (Table 19, symbol H); type: in vivo, barnyard grass (Echinochloa crus-galli); conditions: amount of applied herbicide 320 g/ha
# Method in brief: as §2
# oval-leafed pondweed = assay: Test Example 1: herbicidal activity, application before weed generation under submerged conditions (Table 16, symbol C); type: in vivo, oval-leafed pondweed (Monochoria vaginalis); conditions: amount of applied herbicide 320 g/ha
# Method in brief: (§3)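 Alluvial soil was flooded to 4 cm depth, weed seeds were sown mixed and 2.5-leaf rice seedlings were transplanted. On sowing day, the compound's emulsion, diluted in water to a set dose, was applied to the water surface. Plants grew at 25–30 °C and were scored 0–5 after three weeks.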
# Italian ryegrass [5] = assay: Test Example 5: herbicidal effect by foliage application, plastic box (Table 20, symbol K); type: in vivo, Italian ryegrass (Lolium multiflorum); conditions: foliage application, 320 g/ha, three weeks after application
# Method in brief: as §1
# redroot pigweed = assay: Test Example 4: herbicidal effect by soil treatment (Table 19, symbol N); type: in vivo, redroot pigweed (Amaranthus retroflexus); conditions: amount of applied herbicide 320 g/ha
# Method in brief: as §2
# green foxtail [6] = assay: Test Example 5: herbicidal effect by foliage application, plastic box (Table 20, symbol G); type: in vivo, green foxtail (Setaria viridis); conditions: foliage application, 320 g/ha, three weeks after application
# Method in brief: as §1
# late watergrass = assay: Test Example 1: herbicidal activity, application before weed generation under submerged conditions (Table 16, symbol A); type: in vivo, late watergrass (Echinochloa oryzicola); conditions: amount of applied herbicide 320 g/ha
# Method in brief: as §3
# wild oat [7] = assay: Test Example 4: herbicidal effect by soil treatment (Table 19, symbol I); type: in vivo, wild oat (Avena fatua); conditions: amount of applied herbicide 320 g/ha
# Method in brief: as §2
# blackgrass [8] = assay: Test Example 4: herbicidal effect by soil treatment (Table 19, symbol J); type: in vivo, blackgrass (Alopecurus myosuroides); conditions: amount of applied herbicide 320 g/ha
# Method in brief: as §2
# persian speedwell [9] = assay: Test Example 4: herbicidal effect by soil treatment (Table 19, symbol R); type: in vivo, Persian speedwell (Veronica persica); conditions: amount of applied herbicide 320 g/ha
# Method in brief: as §2
# green foxtail [10] = assay: Test Example 4: herbicidal effect by soil treatment (Table 19, symbol G); type: in vivo, green foxtail (Setaria viridis); conditions: amount of applied herbicide 320 g/ha
# Method in brief: as §2
# lambsquarters [11] = assay: Test Example 5: herbicidal effect by foliage application, plastic box (Table 20, symbol O); type: in vivo, lambsquarters (Chenopodium album); conditions: foliage application, 320 g/ha, three weeks after application
# Method in brief: as §1
# persian speedwell [12] = assay: Test Example 5: herbicidal effect by foliage application, plastic box (Table 20, symbol R); type: in vivo, Persian speedwell (Veronica persica); conditions: foliage application, 320 g/ha, three weeks after application
# Method in brief: as §1
# velvetleaf [13] = assay: Test Example 4: herbicidal effect by soil treatment (Table 19, symbol M); type: in vivo, velvetleaf (Abutilon theophrasti); conditions: amount of applied herbicide 320 g/ha
# Method in brief: as §2
# rice flat sedge = assay: Test Example 3: herbicidal effect by foliage application, Wagner pot (Table 18, symbol E); type: in vivo, rice flat sedge (Cyperus iria); conditions: 320 g/ha
# Method in brief: (§4)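 Plants were sown in alluvial soil held under 0.1–0.5 cm standing water and grown 14 days in a greenhouse at 25–30 °C. An emulsifiable formulation, water-diluted to the set dose, was then sprayed onto the foliage, and effects were scored three weeks later using previously defined criteria.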
# chickweed = assay: Test Example 4: herbicidal effect by soil treatment (Table 19, symbol P); type: in vivo, common chickweed (Stellaria media); conditions: amount of applied herbicide 320 g/ha
# Method in brief: as §2
# lambsquarters [14] = assay: Test Example 4: herbicidal effect by soil treatment (Table 19, symbol O); type: in vivo, lambsquarters (Chenopodium album); conditions: amount of applied herbicide 320 g/ha
# Method in brief: as §2
# windgrass [15] = assay: Test Example 4: herbicidal effect by soil treatment (Table 19, symbol L); type: in vivo, windgrass (Apera spica-venti); conditions: amount of applied herbicide 320 g/ha
# Method in brief: as §2
# windgrass [16] = assay: Test Example 5: herbicidal effect by foliage application, plastic box (Table 20, symbol L); type: in vivo, windgrass (Apera spica-venti); conditions: foliage application, 320 g/ha, three weeks after application
# Method in brief: as §1
# southern crabgrass [17] = assay: Test Example 5: herbicidal effect by foliage application, plastic box (Table 20, symbol F); type: in vivo, southern crabgrass (Digitaria ciliaris); conditions: foliage application, 320 g/ha, three weeks after application
# Method in brief: as §1
# velvetleaf [18] = assay: Test Example 5: herbicidal effect by foliage application, plastic box (Table 20, symbol M); type: in vivo, velvetleaf (Abutilon theophrasti); conditions: foliage application, 320 g/ha, three weeks after application
# Method in brief: as §1
# southern crabgrass [19] = assay: Test Example 4: herbicidal effect by soil treatment (Table 19, symbol F); type: in vivo, southern crabgrass (Digitaria ciliaris); conditions: amount of applied herbicide 320 g/ha
# Method in brief: as §2
# Japanese bulrush = assay: Test Example 1: herbicidal activity, application before weed generation under submerged conditions (Table 16, symbol B); type: in vivo, Japanese bulrush (Schoenoplectus juncoides); conditions: amount of applied herbicide 320 g/ha
# Method in brief: as §3
# barnyard grass [20] = assay: Test Example 3: herbicidal effect by foliage application, Wagner pot (Table 18, symbol H); type: in vivo, barnyard grass (Echinochloa crus-galli); conditions: 320 g/ha
# Method in brief: as §4
# barnyard grass [21] = assay: Test Example 5: herbicidal effect by foliage application, plastic box (Table 20, symbol H); type: in vivo, barnyard grass (Echinochloa crus-galli); conditions: foliage application, 320 g/ha, three weeks after application
# Method in brief: as §1
# Chinese sprangletop = assay: Test Example 3: herbicidal effect by foliage application, Wagner pot (Table 18, symbol D); type: in vivo, chinese sprangletop (Leptochloa chinensis); conditions: 320 g/ha
# Method in brief: as §4
compound,measurement,setting,value
CCOc1ccccc1-c1sc2cc(OC)c(Cl)cc2c1-c1c(O)c(C)nn(C)c1=O [5-072],herbicidal effect on wild oat (I),wild oat [1],2 (Herbicidal rate of 20% or more and less than 40%)
same,herbicidal effect on blackgrass (J),blackgrass [2],3 (Herbicidal rate of 40% or more and less than 70%)
same,"K: Italian ryegrass, herbicidal effect grade",Italian ryegrass [3],0 (Herbicidal rate of 5% or less (almost no effect))
same,"H: barnyard grass, herbicidal effect grade",barnyard grass [4],1 (Herbicidal rate of 5% or more and less than 20%)
same,"Herbicidal effect, C: oval-leafed pondweed",oval-leafed pondweed,0 (Herbicidal rate of 5% or less (almost no effect))
same,herbicidal effect on Italian ryegrass (K),Italian ryegrass [5],0 (Herbicidal rate of 5% or less (almost no effect))
same,"N: redroot pigweed, herbicidal effect grade",redroot pigweed,3 (Herbicidal rate of 40% or more and less than 70%)
same,herbicidal effect on green foxtail (G),green foxtail [6],5 (Herbicidal rate of 90% or more (almost completely withered))
same,"Herbicidal effect, A: late watergrass",late watergrass,0 (Herbicidal rate of 5% or less (almost no effect))
same,"I: wild oat, herbicidal effect grade",wild oat [7],0 (Herbicidal rate of 5% or less (almost no effect))
same,"J: blackgrass, herbicidal effect grade",blackgrass [8],0 (Herbicidal rate of 5% or less (almost no effect))
same,"R: persian speedwell, herbicidal effect grade",persian speedwell [9],3 (Herbicidal rate of 40% or more and less than 70%)
same,"G: green foxtail, herbicidal effect grade",green foxtail [10],4 (Herbicidal rate of 70% or more and less than 90%)
same,herbicidal effect on lambsquarters (O),lambsquarters [11],4 (Herbicidal rate of 70% or more and less than 90%)
same,herbicidal effect on persian speedwell (R),persian speedwell [12],5 (Herbicidal rate of 90% or more (almost completely withered))
same,"M: velvetleaf, herbicidal effect grade",velvetleaf [13],1 (Herbicidal rate of 5% or more and less than 20%)
same,herbicidal effect on rice flat sedge (E),rice flat sedge,5 (Herbicidal rate of 90% or more (almost completely withered))
same,"P: chickweed, herbicidal effect grade",chickweed,2 (Herbicidal rate of 20% or more and less than 40%)
same,"O: lambsquarters, herbicidal effect grade",lambsquarters [14],3 (Herbicidal rate of 40% or more and less than 70%)
same,"L: windgrass, herbicidal effect grade",windgrass [15],0 (Herbicidal rate of 5% or less (almost no effect))
same,herbicidal effect on windgrass (L),windgrass [16],5 (Herbicidal rate of 90% or more (almost completely withered))
same,herbicidal effect on southern crabgrass (F),southern crabgrass [17],5 (Herbicidal rate of 90% or more (almost completely withered))
same,herbicidal effect on velvetleaf (M),velvetleaf [18],5 (Herbicidal rate of 90% or more (almost completely withered))
same,"F: southern crabgrass, herbicidal effect grade",southern crabgrass [19],5 (Herbicidal rate of 90% or more (almost completely withered))
same,"Herbicidal effect, B: Japanese bulrush",Japanese bulrush,2 (Herbicidal rate of 20% or more and less than 40%)
same,herbicidal effect on barnyard grass (H),barnyard grass [20],5 (Herbicidal rate of 90% or more (almost completely withered))
same,herbicidal effect on barnyard grass (H),barnyard grass [21],5 (Herbicidal rate of 90% or more (almost completely withered))
same,herbicidal effect on Chinese sprangletop (D),Chinese sprangletop,3 (Herbicidal rate of 40% or more and less than 70%)
